Patent US20220023381A1, “VDAC INHIBITORS FOR TREATING AUTOIMMUNE DISEASES” (NATIONAL INSTITUTE FOR BIOTECHNOLOGY IN THE NEGEV LTD., priority 2018, published 2022)

Experiments:
[1] = test system: EndoG−/− MEFs; experiment: ISG expression in EndoG−/− MEFs (real-time PCR / western blot); assay type: cell-based, mouse; details: VBIT-4 (10 μM), real-time PCR
Protocol: All MEFs were grown in complete Dulbecco's modified Eagle's medium (DMEM, Corning) supplemented with 10% fetal bovine serum (FBS, Sigma-Aldrich) and 1% penicillin and streptomycin (antibiotics, Gibco) at 37° C. with 5% CO2.
Total RNA was extracted using RNeasy Plus Mini Kit (Qiagen) according to the manufacturer's instructions. The first-strand cDNA was synthesized from 2 μg purified mRNA using Accupower RT PreMix (BioNeer). The reaction mixtures were incubated at 42° C. for 60 min and 94° C. for 5 min. Real-time RT-PCR was performed using the LightCycler 96 system (Roche Life Science) with SYBR Green master mix (Roche). The primers used were as follow (5′-3′): EndoG forward (SEQ ID NO:36), and reverse (SEQ ID NO:37); Cxcl10 forward (SEQ ID NO:38), and reverse (SEQ ID NO:39); GAPDH forward (SEQ ID NO:40), and reverse (SEQ ID NO:41); Ifi44 forward (SEQ ID NO:42), and reverse (SEQ ID NO:43); Ifit1 forward (SEQ ID NO:44), and reverse (SEQ ID NO:45); Ifit3 forward (SEQ ID NO:46), and reverse (SEQ ID NO:47); IFNα4 forward (SEQ ID NO:48), and reverse (SEQ ID NO:49); IFNβ forward (SEQ ID NO:50), and reverse (SEQ ID NO:51); Iigp1 forward (SEQ ID NO:52), and reverse (SEQ ID NO:53); ISG15 forward (SEQ ID NO:54), and reverse (SEQ ID NO:55); Oasl2 forward (SEQ ID NO:56), and reverse (SEQ ID NO:57); Rsad2 forward (SEQ ID NO:58), and reverse (SEQ ID NO:59); USP18 forward (SEQ ID NO:60), and reverse (SEQ ID NO:61); VDAC1 forward (SEQ ID NO:62), and reverse (SEQ ID NO:63). GAPDH was used as an internal standard of mRNA expression, and the ratio of the target gene expression to GAPDH expression was calculated using LightCycler 96 Instrument software (Roche). The quality of real-time RT-PCR results was evaluated based on the melting temperature (Tm) of a DNA fragment and melting curve analysis.

[2] = test system: EndoG−/− MEFs; experiment: Quantification of cytosolic mtDNA (cmtDNA) in EndoG−/− MEFs; assay type: cell-based, mouse; details: VBIT-4 (10 μM), real-time PCR
Protocol: MEFs were resuspended in 170 μl digitonin buffer containing 150 mM NaCl, 50 mM HEPES pH 7.4, and 25 μg/ml digitonin (EMD Millipore Corp). The homogenates were incubated on a rotator for 10 min at room temperature, followed by centrifugation at 16,000 g for 25 min at 4° C. A 1:20 dilution of the supernatant (cmtDNA) was used for real-time RT-PCR. The pellet was resuspended in 340 μl lysis buffer containing 5 mM EDTA and proteinase K (Qiagen) and incubated at 55° C. overnight. The digested pellet was diluted with water (1:20 to 1:100) and heated at 95° C. for 20 min to inactivate proteinase K, and the sample was used for real-time PCR. The primers used were as follow (5′-3′): D-loop1 forward (SEQ ID NO:64), and reverse (SEQ ID NO:65); D-loop2 forward (SEQ ID NO:66), and reverse (SEQ ID NO:67); D-loop3 forward (SEQ ID NO:68), and reverse (SEQ ID NO:69). The cmtDNA in the supernatant was normalized to the total mitochondrial DNA in the pellet for each sample.

[3] = test system: PTP; experiment: Mitochondrial swelling assay (PTP opening); details: purified mitochondria, Ca2+-induced swelling
Protocol: (§1) The PTP opening was analyzed following mitochondria swelling. Briefly, freshly isolated mitochondria (0.5 mg/ml) were incubated for 2 min at 24° C. with the indicated concentrations of VBIT-4 for Ca^2+-induced mitochondrial swelling assay. Swelling was initiated by the addition of Ca^2+ (0.1 mM) to the sample cuvette. Absorbance changes at 520 nm were monitored every 16 s for 15 min. Cyclosporine A 10 μM) was used as a positive control. […] Ca^2+ accumulation by freshly isolated rat liver mitochondria (0.5 mg/ml) was assayed with the indicated concentrations of VBIT-4 in the presence of […] CaCl2) (containing [^45Ca^2+]), 220 mM mannitol, 70 mM sucrose, 5 mM succinate, 0.15 mM Pi and 15 mM Tris/HCl, pH 7.2. Ca^2+ uptake was terminated by rapid Millipore filtration (0.45 μm).

[4] = test system: rat liver mitochondria; experiment: Ca2+ accumulation by isolated mitochondria; details: purified mitochondria
Protocol: as §1

[5] = molecular target: T1, VDAC1 (Rattus norvegicus, UniProt Q9Z2L0); experiment: mtDNA efflux from liposomes reconstituted with VDAC1; assay type: biochemical; details: VDAC1-containing mtDNA-loaded liposomes
T1 construct: from tissue; host or cells: rat liver mitochondria (inferred)
T1 sequence (Q9Z2L0 whole entry): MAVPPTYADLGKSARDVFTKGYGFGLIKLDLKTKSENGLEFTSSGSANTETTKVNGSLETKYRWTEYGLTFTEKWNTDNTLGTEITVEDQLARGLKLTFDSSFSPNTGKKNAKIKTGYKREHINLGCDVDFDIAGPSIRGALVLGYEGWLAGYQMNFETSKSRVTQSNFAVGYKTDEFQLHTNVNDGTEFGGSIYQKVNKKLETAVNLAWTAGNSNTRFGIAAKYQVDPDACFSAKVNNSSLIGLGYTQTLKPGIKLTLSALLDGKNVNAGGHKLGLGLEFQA

[6] = test system: MRL/lpr mice; experiment: MRL/lpr lupus-prone mouse model; assay type: in vivo
Protocol: All experiments were approved by the ACUC (Animal Care and Use Committee) of the NIH/NHLBI. Lupus-prone female MRL/MpJ-Fas^lpr/J mice (stock #000485, n=10 in each group), used as a model to determine the etiology of systemic lupus erythematosus (SLE), were purchased from The Jackson Laboratory. VIBIT4 was freshly dissolved in DMSO and diluted in water (final pH 5.0). The mice were treated with a daily dose of VBIT-4 (20 mg/kg) or vehicle in drinking water for 5 weeks, beginning at 11 weeks of age until euthanasia at 16 weeks of age. Blood and urine samples were collected when the mice were 16 weeks of age. The body weight of the mice was measured before and after VBIT-4 administration (at 11 and 16 weeks of age).
Proteinuria in fresh urine was measured using creatinine and albumin ELISA kits (Exocell), and mouse albumin was used to determine the proteinuria:creatinine ratio following the manufacturer's instructions.
Circulating mtDNA was isolated from 500 μl of serum using QIAamp Circulating Nucleic Acid Kit (Qiagen) according to the manufacturer's protocol. Briefly, serum samples were incubated with proteinase K and carrier RNA at 55° C. for 30 min in lysis buffer, and the circulating nucleic acids were bound to the silica membrane by applying vacuum pressure. After washing, the eluted samples were used for real-time RT-PCR. Primers of the mtDNA D-loop3 regions were used to quantify serum mtDNA. Anti-dsDNA antibodies were detected at 1:200 serum dilution using an ELISA kit (Alpha Diagnostic).
Kidneys were harvested after perfusion with PBS from MRL/lpr mice. Frozen kidney sections were fixed in cold acetone for 20 min, washed, and blocked for 18 h at 4° C. with 4% BSA in PBS. To detect glomerular deposits, the sections were stained with FITC-conjugated anti-mouse C3 antibody (GC3-90E-Z, Immunology Consultants Laboratory) and Alexa Fluor 594-conjugated anti-Mouse IgG antibody (A-11020, Invitrogen) with Hoechst staining at 1:100 dilution (Life Technologies) for 1 h at room temperature. After washing with PBS, the tissues were mounted, and the slides were observed using a LSM880 laser confocal microscope. The fluorescence intensity score was determined after analyzing random images for each animal in a blinded manner.

[7] = test system: low-density granulocytes (LDG) and normal-density granulocytes (NDG); experiment: NET formation (NETosis) in granulocytes; assay type: cell-based, human
Protocol: Normal-density granulocytes (NDGs) were isolated from heparinized venous blood using a Ficoll-Paque gradient (GE Healthcare) with dextran (Sigma-Aldrich) sedimentation, followed by red blood cell lysis using hypotonic NaCl. From the PBMC layer, low-density granulocytes (LDGs) were isolated using a negative selection method. The cells were resuspended in RPMI 1640 medium for further characterization. NETs were induced in NDGs by incubating cells with calcium ionophore A23187 (25 μM) (Thermo Fisher) in RPMI 1640 medium for 2 h, and NETs were quantified using SYTOX fluorescent dye at 485/520 nm to quantify extracellular DNA. The fluorescence of PicoGreen (Life Technologies) at t=0 min was measured at 485/520 nm […] to quantify the total DNA. The fluorescence was quantified using a microplate reader (Synergy HTX; BIOTEK). NETs were also quantified by fluorescence microscopy. Briefly, the cells were attached to coverslip chambers, stimulated for 90 min at 37° C. with calcium ionophore, fixed with 4% paraformaldehyde overnight at 4° C., and permeabilized with 0.2% Triton X-100 for 10 min, followed by 0.5% gelatin for 20 min. The cells were stained with antibodies against human neutrophil elastase (ab21595, Abcam) for 2 h at room temperature, washed in PBS, and stained with Hoechst 33342 (Life Technologies) and Alexa Fluor 488 secondary antibody (A31570, Life Technologies) for 2 h at room temperature. After mounting, the cells were visualized with a LSM780 confocal microscope.

[8] = VBIT-4 20 mg/kg daily in drinking water, 5 weeks

O=C(CC(CO)N1CCN(c2ccc(OC(F)(F)F)cc2)CC1)Nc1ccc(Cl)cc1 (centres unmarked) [VBIT-4, N-(4-chlorophenyl)-4-hydroxy-3-(4-(4-(trifluoromethoxy)phenyl)-piperazin-1-yl)butanamide]
ISG expression [1]: decreased
cmtDNA [2]: decreased
PTP opening [3]: did not prevent
Ca2+ uptake [4]: did not prevent
mtDNA release from liposomes [5]: decreased
weight of spleen and lymph node ([6]; 20 mg/kg daily, 5 weeks, at 16 weeks of age): reduced
renal immune complex deposition ([6]; C3 and IgG in kidney glomeruli, compared with vehicle-treated mice): significantly diminished
alopecia of face and dorsal [6, 8]: suppressed
development of skin lesions [6, 8]: blocked
mortality [6, 8]: did not cause any mortality
thickening of the epidermis that accompanies leukocyte infiltration [6, 8]: blocked
change in body weight ([6]; VBIT-4 20 mg/kg daily in drinking water, 5 weeks, 11 and 16 weeks of age): did not cause any mortality or change in body weight
proteinuria ([6]; albumin:creatinine ratio, compared with vehicle-treated mice): significantly diminished
serum anti-dsDNA ([6]; compared with vehicle-treated mice): significantly diminished
cell-free mtDNA ([6]; serum, compared with vehicle-treated mice): significantly diminished
ISG induction ([6]; spleen, real-time PCR, compared with vehicle-treated mice): significantly diminished
NETosis ([7]; LDG from lupus patients, spontaneous NET formation, VBIT-4 (5 μM), microscopy): strongly inhibited
NETosis ([7]; NDG from healthy controls, SYTOX-PicoGreen plate assay): strongly inhibited
NETosis ([7]; NDG from lupus patients, A23187-stimulated, microscopy): strongly inhibited
NETosis ([7]; NDG from lupus patients, SYTOX-PicoGreen plate assay): strongly inhibited
